Patent publication US11986532B2 (Arvinas Operations, Inc., priority 2021, dated 2024)

Molecular target: T1, BCL6 (Homo sapiens, UniProt P41182)
T1 construct: endogenous in cells; host or cells: T47D breast cancer epithelial cells
Assay: Immunofluorescence protocol for high content imaging of BCL6 (degradation) in T47D cells, 3 days compound treatment
Type: cell-based
Conditions: for Dmax: T47D, read-out: Mean Dmax (%)** category; for DC50: read-out: Mean DC50 (nM)* category
How it was run: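 For degradation, compound series (3-fold, 11 points, top 0.1 or 1 μM final) were added to adherent T47D cultures for 3 days. BCL6 immunostaining used a rabbit antibody at 1:300 and an Alexa-488 secondary, with imaging at 10× magnification.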

Structure (SMILES)	Dmax	DC50
CNC(=O)COc1cc2cc(Nc3nc(N4CCC(O[C@H]5C[C@H](N6CCN(c7c(F)cc8c(c7F)CN(C7CCC(=O)NC7=O)C8=O)CC6)C5)CC4)ncc3Cl)ccc2n(C(C)C)c1=O (stereo partly drawn) [Compound 386, 2-({6-[(5-chloro-2-{4-[(1r,3r)-3-{4-[2-(2,6-dioxopiperidin-3-yl)-4,6-difluoro-1-oxo-2,3-dihydro-1H-isoindol-5-yl]piperazin-1-yl}cyclobutoxy]piperidin-1-yl}pyrimidin-4-yl)amino]-2-oxo-1-(propan-2-yl)-1,2-dihydroquinolin-3-yl}oxy)-N-methylacetamide]	50 to 70%	< 10 nM
CNC(=O)COc1cc2cc(Nc3nc(N4CCC(O[C@H]5C[C@H](N6CCN(c7ccc8c(c7)C(=O)N(C7CCC(=O)NC7=O)C8=O)[C@H](C)C6)C5)CC4)ncc3Cl)ccc2n(C(C)C)c1=O (stereo partly drawn) [Compound 387, 2-({6-[(5-chloro-2-{4-[(1r,3r)-3-[(3R)-4-[2-(2,6-dioxopiperidin-3-yl)-1,3-dioxo-2,3-dihydro-1H-isoindol-5-yl]-3-methylpiperazin-1-yl]cyclobutoxy]piperidin-1-yl}pyrimidin-4-yl)amino]-2-oxo-1-(propan-2-yl)-1,2-dihydroquinolin-3-yl}oxy)-N-methylacetamide]	50 to 70%	< 10 nM
CNC(=O)COc1cc2cc(Nc3nc(N4CCC(O[C@H]5C[C@H](N6CCN(c7ccc8c(c7F)CN([C@H]7CCC(=O)NC7=O)C8=O)CC6)C5)CC4)ncc3Cl)ccc2n(C(C)C)c1=O [Compound 388, 2-({6-[(5-chloro-2-{4-[(1r,3r)-3-(4-{2-[(3S)-2,6-dioxopiperidin-3-yl]-4-fluoro-1-oxo-2,3-dihydro-1H-isoindol-5-yl}piperazin-1-yl)cyclobutoxy]piperidin-1-yl}pyrimidin-4-yl)amino]-2-oxo-1-(propan-2-yl)-1,2-dihydroquinolin-3-yl}oxy)-N-methylacetamide]	50 to 70%	< 10 nM
CNC(=O)COc1cc2c(F)c(Nc3nc(N4CCC(F)(CN5CCC6(CC5)CN(c5ccc7c(c5)CN(C5CCC(=O)NC5=O)C7=O)C6)CC4)ncc3Cl)ccc2n(C(C)C)c1=O (stereo not drawn) [Compound 389, 2-{[6-({5-chloro-2-[4-({2-[2-(2,6-dioxopiperidin-3-yl)-1-oxo-2,3-dihydro-1H-isoindol-5-yl]-2,7-diazaspiro[3.5]nonan-7-yl}methyl)-4-fluoropiperidin-1-yl]pyrimidin-4-yl}amino)-5-fluoro-2-oxo-1-(propan-2-yl)-1,2-dihydroquinolin-3-yl]oxy}-N-methylacetamide]	≥ 70%	< 10 nM
CNC(=O)COc1cc2c(F)c(Nc3nc(N4CCC(F)(CN5CCC6(CC5)CN(c5ccc7c(c5F)CN(C5CCC(=O)NC5=O)C7=O)C6)CC4)ncc3Cl)ccc2n(C(C)C)c1=O (stereo not drawn) [Compound 390, 2-{[6-({5-chloro-2-[4-({2-[2-(2,6-dioxopiperidin-3-yl)-4-fluoro-1-oxo-2,3-dihydro-1H-isoindol-5-yl]-2,7-diazaspiro[3.5]nonan-7-yl}methyl)-4-fluoropiperidin-1-yl]pyrimidin-4-yl}amino)-5-fluoro-2-oxo-1-(propan-2-yl)-1,2-dihydroquinolin-3-yl]oxy}-N-methylacetamide]	≥ 70%	< 10 nM
CNC(=O)COc1cc2cc(Nc3nc(N4CCC(O[C@H]5C[C@H](N6CCN(c7ccc8c(c7)C(=O)N(C7CCC(=O)NC7=O)C8=O)[C@@H](C)C6)C5)CC4)ncc3Cl)ccc2n(C(C)C)c1=O (stereo partly drawn) [Compound 391, 2-({6-[(5-chloro-2-{4-[(1r,3r)-3-[(3S)-4-[2-(2,6-dioxopiperidin-3-yl)-1,3-dioxo-2,3-dihydro-1H-isoindol-5-yl]-3-methylpiperazin-1-yl]cyclobutoxy]piperidin-1-yl}pyrimidin-4-yl)amino]-2-oxo-1-(propan-2-yl)-1,2-dihydroquinolin-3-yl}oxy)-N-methylacetamide]	≥ 70%	< 10 nM
CNC(=O)COc1cc2cc(Nc3nc(N4CCC(O[C@H]5C[C@H](N6CCN(c7ccc8c(c7F)CN([C@@H]7CCC(=O)NC7=O)C8=O)CC6)C5)CC4)ncc3Cl)ccc2n(C(C)C)c1=O [Compound 392, 2-({6-[(5-chloro-2-{4-[(1r,3r)-3-(4-{2-[(3R)-2,6-dioxopiperidin-3-yl]-4-fluoro-1-oxo-2,3-dihydro-1H-isoindol-5-yl}piperazin-1-yl)cyclobutoxy]piperidin-1-yl}pyrimidin-4-yl)amino]-2-oxo-1-(propan-2-yl)-1,2-dihydroquinolin-3-yl}oxy)-N-methylacetamide]	≥ 70%	< 10 nM
CNC(=O)COc1cc2cc(Nc3nc(N4CCC(O[C@H]5C[C@H](N6CC7(CCN(c8ccc9c(c8F)CN(C8CCC(=O)NC8=O)C9=O)CC7)C6)C5)CC4)ncc3Cl)ccc2n(C(C)C)c1=O (stereo partly drawn) [Compound 393, 2-({6-[(5-chloro-2-{4-[(1r,3r)-3-{7-[2-(2,6-dioxopiperidin-3-yl)-4-fluoro-1-oxo-2,3-dihydro-1H-isoindol-5-yl]-2,7-diazaspiro[3.5]nonan-2-yl}cyclobutoxy]piperidin-1-yl}pyrimidin-4-yl)amino]-2-oxo-1-(propan-2-yl)-1,2-dihydroquinolin-3-yl}oxy)-N-methylacetamide]	≥ 70%	< 10 nM
CNC(=O)COc1cc2cc(Nc3nc(N4CCC(O[C@H]5C[C@H](N6CCN(c7ccc8c(c7F)CN([C@H]7CCC(=O)NC7=O)C8=O)[C@H](C)C6)C5)CC4)ncc3Cl)ccc2n(C(C)C)c1=O [Compound 394, 2-({6-[(5-chloro-2-{4-[(1r,3r)-3-[(3R)-4-{2-[(3S)-2,6-dioxopiperidin-3-yl]-4-fluoro-1-oxo-2,3-dihydro-1H-isoindol-5-yl}-3-methylpiperazin-1-yl]cyclobutoxy]piperidin-1-yl}pyrimidin-4-yl)amino]-2-oxo-1-(propan-2-yl)-1,2-dihydroquinolin-3-yl}oxy)-N-methylacetamide]	≥ 70%	< 10 nM
CNC(=O)COc1cc2cc(Nc3nc(N4CCC(O[C@H]5C[C@H](N6CCN(c7ccc8c(c7F)CN([C@@H]7CCC(=O)NC7=O)C8=O)[C@H](C)C6)C5)CC4)ncc3Cl)ccc2n(C(C)C)c1=O [Compound 395, 2-({6-[(5-chloro-2-{4-[(1r,3r)-3-[(3R)-4-{2-[(3R)-2,6-dioxopiperidin-3-yl]-4-fluoro-1-oxo-2,3-dihydro-1H-isoindol-5-yl}-3-methylpiperazin-1-yl]cyclobutoxy]piperidin-1-yl}pyrimidin-4-yl)amino]-2-oxo-1-(propan-2-yl)-1,2-dihydroquinolin-3-yl}oxy)-N-methylacetamide]	≥ 70%	< 10 nM
CNC(=O)COc1cc2cc(Nc3nc(N4CCC(O[C@H]5C[C@H](N6CC[C@@H](c7ccc8c(c7F)CN([C@@H]7CCC(=O)NC7=O)C8=O)C(C)(C)C6)C5)CC4)ncc3Cl)ccc2n(C(C)C)c1=O [Compound 396, 2-({6-[(5-chloro-2-{4-[(1r,3r)-3-[(4R)-4-{2-[(3R)-2,6-dioxopiperidin-3-yl]-4-fluoro-1-oxo-2,3-dihydro-1H-isoindol-5-yl}-3,3-dimethylpiperidin-1-yl]cyclobutoxy]piperidin-1-yl}pyrimidin-4-yl)amino]-2-oxo-1-(propan-2-yl)-1,2-dihydroquinolin-3-yl}oxy)-N-methylacetamide]	≥ 70%	< 10 nM
CNC(=O)COc1cc2cc(Nc3nc(N4CCC(O[C@H]5C[C@H](N6CCC(c7c(C)cc8c(c7F)CN(C7CCC(=O)NC7=O)C8=O)CC6)C5)CC4)ncc3Cl)ccc2n(C(C)C)c1=O (stereo partly drawn) [Compound 397, 2-({6-[(5-chloro-2-{4-[(1r,3r)-3-{4-[2-(2,6-dioxopiperidin-3-yl)-4-fluoro-6-methyl-1-oxo-2,3-dihydro-1H-isoindol-5-yl]piperidin-1-yl}cyclobutoxy]piperidin-1-yl}pyrimidin-4-yl)amino]-2-oxo-1-(propan-2-yl)-1,2-dihydroquinolin-3-yl}oxy)-N-methylacetamide]	≥ 70%	< 10 nM
CNC(=O)COc1cc2cc(Nc3nc(N4CCC(O[C@H]5C[C@H](N6CCC(c7ccc8c(c7)C(=O)N(C7CCC(=O)NC7=O)C8=O)C(C)(C)C6)C5)CC4)ncc3Cl)ccc2n(C(C)C)c1=O (stereo partly drawn) [Compound 399, 2-({6-[(5-chloro-2-{4-[(1r,3r)-3-{4-[2-(2,6-dioxopiperidin-3-yl)-1,3-dioxo-2,3-dihydro-1H-isoindol-5-yl]-3,3-dimethylpiperidin-1-yl}cyclobutoxy]piperidin-1-yl}pyrimidin-4-yl)amino]-2-oxo-1-(propan-2-yl)-1,2-dihydroquinolin-3-yl}oxy)-N-methylacetamide]	≥ 70%	10 to 50 nM
CNC(=O)COc1cc2cc(Nc3nc(N4CCC(O[C@H]5C[C@H](N6CC7(CCN(c8ccc9c(c8F)CN(C8CCC(=O)NC8=O)C9=O)C7)C6)C5)CC4)ncc3Cl)ccc2n(C(C)C)c1=O (stereo partly drawn) [Compound 400, 2-({6-[(5-chloro-2-{4-[(1r,3r)-3-{6-[2-(2,6-dioxopiperidin-3-yl)-4-fluoro-1-oxo-2,3-dihydro-1H-isoindol-5-yl]-2,6-diazaspiro[3.4]octan-2-yl}cyclobutoxy]piperidin-1-yl}pyrimidin-4-yl)amino]-2-oxo-1-(propan-2-yl)-1,2-dihydroquinolin-3-yl}oxy)-N-methylacetamide]	≥ 70%	< 10 nM
CNC(=O)COc1cc2cc(Nc3nc(N4CCC(O[C@H]5C[C@H](N6CCCC7(CCN(c8ccc9c(c8F)CN(C8CCC(=O)NC8=O)C9=O)C7)C6)C5)CC4)ncc3Cl)ccc2n(C(C)C)c1=O (stereo partly drawn) [Compound 401, 2-({6-[(5-chloro-2-{4-[(1r,3r)-3-{2-[2-(2,6-dioxopiperidin-3-yl)-4-fluoro-1-oxo-2,3-dihydro-1H-isoindol-5-yl]-2,7-diazaspiro[4.5]decan-7-yl}cyclobutoxy]piperidin-1-yl}pyrimidin-4-yl)amino]-2-oxo-1-(propan-2-yl)-1,2-dihydroquinolin-3-yl}oxy)-N-methylacetamide]	≥ 70%	< 10 nM
